Laboratory results from publication PMC11078216, “Discovery of potent and selective activity-based probes (ABPs) for the deubiquitinating enzyme USP30” (RSC Chemical Biology, 2024).

Assays:
Experiment in all cases: ABPP chemical proteomics (LC-MS/MS) in HEK293T cells
Format in all cases: cell-based
RPS8 = target: T1, RPS8 (Homo sapiens, UniProt P62241); conditions: IMP-2587 labelling vs DMSO, 30 nM, 10 min, HEK293T (Table S2, Fig.5a)
T1 construct: endogenous in cells; host or cells: HEK293T
Protocol: (§1) To explore the selectivity of IMP-2587 and IMP-2586 across the whole proteome, we performed quantitative activity-based protein profiling (ABPP) in HEK293T cells following treatment with IMP-2587 or IMP-2586 (Fig. 3a). After ABP incubation, cells were lysed, and probe-labelled proteins were ligated to biotinylated capture reagents.[27] […] USP30 was outcompeted by corresponding parent inhibitors for each ABP (Fig. 5b and d and Tables S3 and S5, ESI ^†), confirming the high potency and rapid engagement of IMP-2587 and IMP-2586 in cells. […] DESI1 and DESI2 are small ubiquitin-related modifier (SUMO) proteases,[3,29–32] and IMP-2587 and IMP-2586 may offer a starting point for future development of DESI ABPs. […]
(§2) d) Live cell probe incubation, lysate click chemistry and precipitation 6-well HEK293T cells were incubated with media containing compounds ABP 2 and ABP 4 at indicated concentrations for 1 h at 37 °C. The cells were washed with PBS and lysed with lysis buffer (50 μL (1% (v/v) Triton X-100, 0.1% (w/v) sodium dodecyl sulfate (SDS), EDTA-free complete protease inhibitor cocktail (1×, Roche) in PBS on ice for 10 min. The lysates were scraped and transferred to corresponding Lo-Bind Eppendorfs. Each lysate was sonicated for 1 minute, and the samples centrifuges at 5,000 x g at 4 °C for 5 minutes to pellet insoluble cellular debris. The supernatant was collected, and protein concentration was determined using the DC Protein Assay (Bio-Rad) as per manufacturer’s instructions, and normalised to lowest concentrated sample (e.g. 1 mg/mL, using lysis buffer). The following “click mixture” was prepared separately, preparing 6 μL for every 100 μL of […]
(§3) Capture reagent (AzRB/AzT for ABP 2, YnT/YnB for ABP 4 10 mM in DMSO, 1 vol; final concentration […]
(§4) CuSO4 (50 mM in water, 2 vol; final concentration in reaction 1 mM)
(§5) TCEP (50 mM in water, 2 vol; final concentration in reaction 1 mM)
(§6) TBTA (10 mM in DMSO, 1 vol; final concentration in reaction 100 µM)
(§7) The click mixture was vortexed and incubated at room temperature for 2 min before 6 μL of the mixture was added to every 100 μL of lysate. The reaction mixtures were shaken at room temperature for 1 h before being quenched with EDTA (500 mM in H2O) to a final concentration of 10 mM.
(§8) Proteins were precipitated by adding H2O (1 vol), MeOH (2 vol) and CHCl3 (0.5 vol), vortexing briefly then centrifuging at 17,000 × g for 5 min. The top H2O/MeOH layer was discarded and the middle layer of protein pellet and lower CHCl3 layer retained. The suspension was washed with MeOH (300 μL), and sonicated to break up the pellet. The proteins were pelleted by centrifugation at 10,000–17000 × g for 5–10 min or until a compact pellet was formed. The protein pellet was washed once more with MeOH (1 mL). The pellet was resuspended by sonicating and completely dissolving in 1% (w/v) SDS in PBS (to 5 mg/mL protein) before being made up to 1 mg/mL protein with PBS.
(§9) The lysate samples (10-20 μg) were mixed with 4× Laemmli sample loading buffer (250 mM Tris -HCl pH 6.8, 30% (v/v) glycerol, 10% (w/v) SDS, 0.05% (w/v) bromophenol blue) supplemented with 20% v/v β-mercaptoethanol (BME) and boiled for 10 min at 95 °C. The resulting protein samples were separated according to the protocol in section 3.2.c. Gel were imaged on a Typhoon imager (GE Healthcare; λEx 532 nm, λEm 575 nm for TAMRA. For protein loading quantification, gels were stained with Coomassie blue staining solution overnight, rinsed with water and imaged on an ImageQuant™ LAS 4000 imager (GE Healthcare). f) Neutravidin biotin enrichment (Affinity pull-down)
(§10) Click chemistry and precipitation steps were carried out as described in section 3.2.d, on at least 400ug of protein per sample. The pellet was resuspended by sonicating and completely dissolving in 1% (w/v) SDS in HEPES 50 mM pH 8.0, before being made up to 1 mg/mL protein with HEPES 50 mM pH 8.0 to […]
(§11) achieve a final concentration of 0.2% SDS. 20uL of each samples was collected as TL (Total lysate) […]
(§12) samples. […]

NIT2 = target: T2, NIT2 (Homo sapiens, UniProt Q9NQR4); conditions: IMP-2587 labelling vs DMSO, 30 nM, 10 min, HEK293T (Table S2, Fig.5a)
T2 construct: endogenous in cells; host or cells: HEK293T
Protocol: as §1, §2, §3, §4, §5, §6, §7, §8, §9, §10, §11, §12

UCHL1 = target: T3, UCHL1 (Homo sapiens, UniProt P09936); parameters: endogenous in cells; host or cells: HEK293T; conditions: IMP-2587 labelling vs DMSO, 30 nM, 10 min, HEK293T (Table S2, Fig.5a)
T3 sequence (P09936 1-223): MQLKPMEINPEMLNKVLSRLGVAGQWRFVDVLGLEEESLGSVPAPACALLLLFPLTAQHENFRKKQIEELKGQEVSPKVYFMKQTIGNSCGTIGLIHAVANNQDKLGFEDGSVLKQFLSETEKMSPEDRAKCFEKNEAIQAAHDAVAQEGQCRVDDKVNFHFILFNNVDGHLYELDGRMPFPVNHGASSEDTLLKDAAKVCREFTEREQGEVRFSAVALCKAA
Protocol: as §1
as §9, with “The resulting protein samples were separated according to the protocol in section 3.2.c.” left out, “pull-down) […]” for “pull-down)”

DCD = target: T4, DCD (Homo sapiens, UniProt P81605); conditions: compound 1 out-competition with IMP-2587 labelling, HEK293T (Table S3, Fig.5b)
T4 construct: endogenous in cells; host or cells: HEK293T
Protocol: as §1, §2, §3, §4, §5, §6, §7, §8, §9, §10, §11, §12

IMPDH2 = target: T5, IMPDH2 (Homo sapiens, UniProt P12268); conditions: compound 1 out-competition with IMP-2587 labelling, HEK293T (Table S3, Fig.5b)
T5 construct: endogenous in cells; host or cells: HEK293T
Protocol: as §1, §2, §3, §4, §5, §6, §7, §8, §9, §10, §11, §12

SMARCA4 = target: T6, SMARCA4 (Homo sapiens, UniProt P51532); conditions: IMP-2586 labelling vs DMSO, 30 nM, 10 min, HEK293T (Table S4, Fig.5c)
T6 construct: endogenous in cells; host or cells: HEK293T
Protocol: as §1, §2, §3, §4, §5, §6, §7, §8, §9, §10, §11, §12

ALYREF = target: T7, ALYREF (Homo sapiens, UniProt Q86V81); conditions: IMP-2586 labelling vs DMSO, 30 nM, 10 min, HEK293T (Table S4, Fig.5c)
T7 construct: endogenous in cells; host or cells: HEK293T
Protocol: as §1, §2, §3, §4, §5, §6, §7, §8, §9, §10, §11, §12

CAV1 = conditions: IMP-2586 labelling vs DMSO, 30 nM, 10 min, HEK293T (Table S4, Fig.5c)
Protocol: as §1, §2, §3, §4, §5, §6, §7, §8, §9, §10, §11, §12

MALT1 = target: T8, MALT1 (Homo sapiens, UniProt Q9UDY8); conditions: IMP-2586 labelling vs DMSO, 30 nM, 10 min, HEK293T (Table S4, Fig.5c)
T8 construct: endogenous in cells; host or cells: HEK293T
Protocol: as §1, §2, §3, §4, §5, §6, §7, §8, §9, §10, §11, §12

CNP = target: T9, CNP (Homo sapiens, UniProt P09543); conditions: IMP-2586 labelling vs DMSO, 30 nM, 10 min, HEK293T (Table S4, Fig.5c)
T9 construct: endogenous in cells; host or cells: HEK293T
Protocol: as §1, §2, §3, §4, §5, §6, §7, §8, §9, §10, §11, §12

RPL27 = target: T10, RPL27 (Homo sapiens, UniProt P61353); conditions: IMP-2586 labelling vs DMSO, 30 nM, 10 min, HEK293T (Table S4, Fig.5c)
T10 construct: endogenous in cells; host or cells: HEK293T
Protocol: as §1, §2, §3, §4, §5, §6, §7, §8, §9, §10, §11, §12

TMEM109 = target: T11, TMEM109 (Homo sapiens, UniProt Q9BVC6); conditions: IMP-2586 labelling vs DMSO, 30 nM, 10 min, HEK293T (Table S4, Fig.5c)
T11 construct: endogenous in cells; host or cells: HEK293T
Protocol: as §1, §2, §3, §4, §5, §6, §7, §8, §9, §10, §11, §12

T9 sequence (P09543 whole entry): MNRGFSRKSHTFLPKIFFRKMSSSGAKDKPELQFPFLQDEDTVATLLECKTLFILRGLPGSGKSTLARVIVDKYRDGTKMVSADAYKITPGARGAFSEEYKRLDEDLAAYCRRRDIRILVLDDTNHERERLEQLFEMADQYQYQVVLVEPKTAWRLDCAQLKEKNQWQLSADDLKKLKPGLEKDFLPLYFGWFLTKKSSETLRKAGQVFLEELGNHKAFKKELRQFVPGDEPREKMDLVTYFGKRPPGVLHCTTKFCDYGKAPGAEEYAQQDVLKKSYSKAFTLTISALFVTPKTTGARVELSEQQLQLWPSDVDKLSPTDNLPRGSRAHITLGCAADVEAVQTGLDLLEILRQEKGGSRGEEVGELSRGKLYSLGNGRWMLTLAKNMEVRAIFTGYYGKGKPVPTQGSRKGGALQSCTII
T8 sequence (Q9UDY8 whole entry): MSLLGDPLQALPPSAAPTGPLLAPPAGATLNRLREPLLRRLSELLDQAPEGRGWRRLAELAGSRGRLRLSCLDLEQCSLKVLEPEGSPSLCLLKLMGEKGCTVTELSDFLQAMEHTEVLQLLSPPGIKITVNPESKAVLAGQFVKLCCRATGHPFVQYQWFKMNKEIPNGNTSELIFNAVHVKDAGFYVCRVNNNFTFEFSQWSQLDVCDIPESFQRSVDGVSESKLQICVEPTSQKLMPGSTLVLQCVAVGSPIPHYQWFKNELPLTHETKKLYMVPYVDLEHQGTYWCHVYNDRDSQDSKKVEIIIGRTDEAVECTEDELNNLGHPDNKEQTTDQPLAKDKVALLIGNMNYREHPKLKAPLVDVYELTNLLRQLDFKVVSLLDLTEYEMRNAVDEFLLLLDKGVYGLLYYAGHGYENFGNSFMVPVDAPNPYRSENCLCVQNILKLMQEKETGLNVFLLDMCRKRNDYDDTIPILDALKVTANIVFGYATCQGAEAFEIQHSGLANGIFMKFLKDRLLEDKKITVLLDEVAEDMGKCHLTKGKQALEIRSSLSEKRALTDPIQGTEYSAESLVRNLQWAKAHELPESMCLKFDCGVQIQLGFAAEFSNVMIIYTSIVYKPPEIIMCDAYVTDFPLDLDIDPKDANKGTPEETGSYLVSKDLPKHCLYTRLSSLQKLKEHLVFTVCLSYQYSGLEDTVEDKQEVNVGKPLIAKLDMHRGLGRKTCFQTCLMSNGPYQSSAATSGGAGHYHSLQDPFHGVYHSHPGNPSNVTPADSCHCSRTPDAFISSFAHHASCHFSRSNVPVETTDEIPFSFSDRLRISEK
T4 sequence (P81605 20-110): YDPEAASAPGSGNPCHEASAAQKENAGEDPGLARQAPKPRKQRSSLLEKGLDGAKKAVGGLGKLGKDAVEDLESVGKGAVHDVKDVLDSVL
T6 sequence (P51532 whole entry): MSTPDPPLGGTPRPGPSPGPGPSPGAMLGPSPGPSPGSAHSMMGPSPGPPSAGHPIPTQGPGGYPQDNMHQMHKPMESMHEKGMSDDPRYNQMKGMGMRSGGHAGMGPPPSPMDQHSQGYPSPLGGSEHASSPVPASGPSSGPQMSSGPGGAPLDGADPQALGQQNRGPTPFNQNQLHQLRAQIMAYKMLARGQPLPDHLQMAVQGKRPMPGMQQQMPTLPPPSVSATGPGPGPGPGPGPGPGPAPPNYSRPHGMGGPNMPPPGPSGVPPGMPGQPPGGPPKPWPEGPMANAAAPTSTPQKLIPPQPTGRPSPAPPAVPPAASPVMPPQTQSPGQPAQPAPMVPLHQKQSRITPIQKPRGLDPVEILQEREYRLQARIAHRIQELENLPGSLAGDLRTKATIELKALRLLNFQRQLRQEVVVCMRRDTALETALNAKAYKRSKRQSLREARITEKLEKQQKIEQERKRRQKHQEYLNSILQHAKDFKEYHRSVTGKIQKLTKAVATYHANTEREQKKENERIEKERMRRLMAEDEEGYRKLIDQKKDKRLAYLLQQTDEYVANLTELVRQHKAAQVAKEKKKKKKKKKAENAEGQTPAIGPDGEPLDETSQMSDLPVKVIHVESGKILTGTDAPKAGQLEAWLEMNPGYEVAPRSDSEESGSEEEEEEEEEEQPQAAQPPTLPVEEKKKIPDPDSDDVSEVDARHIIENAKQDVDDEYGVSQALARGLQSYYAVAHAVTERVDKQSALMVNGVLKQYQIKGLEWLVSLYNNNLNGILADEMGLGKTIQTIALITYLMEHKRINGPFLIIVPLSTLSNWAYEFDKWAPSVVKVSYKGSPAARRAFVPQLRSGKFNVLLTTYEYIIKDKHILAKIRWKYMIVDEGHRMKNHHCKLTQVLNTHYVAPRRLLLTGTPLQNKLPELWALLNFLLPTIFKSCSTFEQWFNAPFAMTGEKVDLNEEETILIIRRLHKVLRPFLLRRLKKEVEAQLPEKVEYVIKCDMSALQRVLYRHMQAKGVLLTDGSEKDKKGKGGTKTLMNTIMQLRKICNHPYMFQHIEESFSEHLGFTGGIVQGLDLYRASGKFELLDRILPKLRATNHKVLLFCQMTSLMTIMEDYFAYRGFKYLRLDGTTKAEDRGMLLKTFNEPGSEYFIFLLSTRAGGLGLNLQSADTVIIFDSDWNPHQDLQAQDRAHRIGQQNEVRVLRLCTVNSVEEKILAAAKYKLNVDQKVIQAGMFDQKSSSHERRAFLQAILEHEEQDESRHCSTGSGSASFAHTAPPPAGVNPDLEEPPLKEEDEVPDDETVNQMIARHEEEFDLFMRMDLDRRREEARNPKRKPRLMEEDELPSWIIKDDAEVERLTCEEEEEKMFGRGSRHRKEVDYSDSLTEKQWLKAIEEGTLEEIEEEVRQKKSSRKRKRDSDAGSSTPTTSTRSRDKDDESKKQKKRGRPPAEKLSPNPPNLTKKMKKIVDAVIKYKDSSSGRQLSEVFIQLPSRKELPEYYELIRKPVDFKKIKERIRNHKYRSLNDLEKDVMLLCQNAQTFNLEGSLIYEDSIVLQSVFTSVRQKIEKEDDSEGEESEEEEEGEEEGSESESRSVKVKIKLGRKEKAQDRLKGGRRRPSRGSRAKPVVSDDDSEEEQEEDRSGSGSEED
T2 sequence (Q9NQR4 whole entry): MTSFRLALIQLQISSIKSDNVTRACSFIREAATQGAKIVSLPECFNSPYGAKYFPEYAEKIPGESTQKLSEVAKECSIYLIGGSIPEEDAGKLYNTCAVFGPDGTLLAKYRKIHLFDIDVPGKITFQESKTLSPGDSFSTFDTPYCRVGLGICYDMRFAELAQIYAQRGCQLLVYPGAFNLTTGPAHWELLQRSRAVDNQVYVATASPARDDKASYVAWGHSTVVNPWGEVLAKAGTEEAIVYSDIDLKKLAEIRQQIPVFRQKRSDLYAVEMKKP
T11 sequence (Q9BVC6 34-243): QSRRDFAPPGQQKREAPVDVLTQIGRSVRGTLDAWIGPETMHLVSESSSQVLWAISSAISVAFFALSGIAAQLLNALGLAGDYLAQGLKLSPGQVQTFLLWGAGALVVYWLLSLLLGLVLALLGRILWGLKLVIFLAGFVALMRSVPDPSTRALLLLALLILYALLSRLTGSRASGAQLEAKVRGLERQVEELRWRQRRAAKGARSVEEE

In the case of `C#Cc1cccc(-c2cc(NC(=O)CC3CCN(C#N)C3)on2)c1` (stereo not shown) [IMP-2587], the “Difference (log2 fold change of enrichment)” value (RPS8) is reported as -0.44, the “Difference (log2 fold change of enrichment)” value (NIT2) is reported as 0.61 and the “Difference (log2 fold change of enrichment)” value (UCHL1) is reported as 0.76.
With `N#CN1CC[C@H](CC(=O)Nc2cc(-c3cccc(Cl)c3)no2)C1` [compound 1, reference compound] the “Difference (log2 fold change of enrichment)” value (DCD) was -0.34 and the “Difference (log2 fold change of enrichment)” value (IMPDH2) was -0.70.
`N#CN1CC[C@@H](NC(=O)c2cc(-c3ccccc3Oc3ccc(N=[N+]=[N-])cc3)n[nH]2)C1` [IMP-2586] was tested, and the “Difference (log2 fold change of enrichment)” value (SMARCA4) was 0.52, the “Difference (log2 fold change of enrichment)” value (ALYREF) was -0.42 and the “Difference (log2 fold change of enrichment)” value (CAV1; CAV1 (Caveolin)) was -2.47. The “Difference (log2 fold change of enrichment)” value (CAV1; CAV1 (Caveolin-1)) was -1.61, the “Difference (log2 fold change of enrichment)” value (MALT1) was 0.75 and the “Difference (log2 fold change of enrichment)” value (CNP) was -0.68. For the same compound, the “Difference (log2 fold change of enrichment)” value (RPL27) was -0.76 and the “Difference (log2 fold change of enrichment)” value (TMEM109) was -1.56.
